Results taken from paper PMC10057391, “Novel ^68Ga-Labeled Pyridine-Based Fibroblast Activation Protein-Targeted Tracers with High Tumor-to-Background Contrast” (Pharmaceuticals, 2023).
Where two headings read alike, the source gives them in different places.

Legend:
FAP = test system: FAP; parameters: method as in PMID 24617858; settings: cited from earlier work
recombinant human FAP = molecular target: T1, recombinant human FAP (Homo sapiens, UniProt Q12884); assay: In vitro FAP fluorescence enzyme inhibition assay (Suc-Gly-Pro-AMC substrate); type: biochemical; settings: nonradioactive Ga-complexed standards
T1 construct: purchased Bio-legend, San Diego, CA, USA
T1 sequence (Q12884 1-760): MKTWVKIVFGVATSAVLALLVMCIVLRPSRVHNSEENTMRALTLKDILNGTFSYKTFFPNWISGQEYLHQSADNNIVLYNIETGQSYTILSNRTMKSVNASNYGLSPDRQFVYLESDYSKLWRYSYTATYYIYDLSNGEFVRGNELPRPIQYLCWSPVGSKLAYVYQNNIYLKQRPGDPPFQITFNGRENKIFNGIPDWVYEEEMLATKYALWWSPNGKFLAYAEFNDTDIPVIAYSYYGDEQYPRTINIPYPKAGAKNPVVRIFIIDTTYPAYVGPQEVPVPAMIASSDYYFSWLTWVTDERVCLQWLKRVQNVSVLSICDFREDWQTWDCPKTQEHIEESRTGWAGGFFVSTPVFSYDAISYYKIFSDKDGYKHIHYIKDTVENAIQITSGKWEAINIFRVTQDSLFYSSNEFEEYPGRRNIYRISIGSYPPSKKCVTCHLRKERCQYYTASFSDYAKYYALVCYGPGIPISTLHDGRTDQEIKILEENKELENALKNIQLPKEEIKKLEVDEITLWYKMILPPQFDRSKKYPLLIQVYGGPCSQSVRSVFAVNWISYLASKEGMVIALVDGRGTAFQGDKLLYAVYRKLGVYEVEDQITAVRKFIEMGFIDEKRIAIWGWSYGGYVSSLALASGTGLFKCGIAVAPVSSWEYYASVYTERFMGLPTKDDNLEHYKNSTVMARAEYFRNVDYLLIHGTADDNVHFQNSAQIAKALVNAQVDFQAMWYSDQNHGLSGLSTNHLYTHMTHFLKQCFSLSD
Procedure: The binding affinities of Ga-AV02053 and Ga-AV02070 to human FAP were measured by an enzyme inhibition assay using Suc-Gly-Pro-AMC as the FAP substrate. The human FAP enzymatic activity on the substrate was inhibited by Ga-AV02053 and Ga-AV02070 in a dose dependent-manner (Figure 2).
The half maximal inhibitory concentration (IC50) values of the tested compounds for FAP were measured by in vitro enzymatic assay. The recombinant human FAP (Bio-legend, San Diego, CA, USA; 0.2 µg/mL, 50 µL) was added into costar 96-well plate. PBS and varied concentrations (0.2 pM to 2 µM) of tested nonradioactive Ga-complexed standards were added to each well (in duplicate) containing the recombinant human FAP. After being incubated for 30 min at 37 °C, 50 µL of Suc-Gly-Pro-AMC (2 µM, Bachem, Torrance, CA, USA) was added to each well. The fluorescent signals were acquired at 15, 30, 45, and 60 min using FlexStation 3 Multi-Mode Microplate Reader with excitation at 380 nm and emission at 460 nm. The IC50 (FAP) values were calculated using “nonlinear fit model” built-in model in GraphPad Prism 7.02 software.

[1] = test system: HEK293T:hFAP tumor xenografts; assay: Ex vivo biodistribution and blocking study in HEK293T:hFAP tumor-bearing mice; settings: 1 h post-injection; for average kidney uptake: range given for the two tracers together; for tumor uptake: HEK293T:hFAP tumor; for average tumor uptake with co-injection of FAPI-04 / reduction of average tumor uptake by co-injection of FAPI-04: blocking, FAPI-04 250 µg co-injected
Procedure: Biodistribution studies were conducted at 1 h post-injection with [^68Ga]Ga-AV02053 and [^68Ga]Ga-AV02070 in HEK293T:hFAP tumor-bearing mice, and the data are compared with those obtained previously using [^68Ga]Ga-FAPI-04 (Figure 4 and Figure 5 and Table S4). The results are consistent with the observations from their PET images. Except tumor and kidneys (1.35–1.85%ID/g), the average uptake values of [^68Ga]Ga-AV02053 and [^68Ga]Ga-AV02070 in all other collected organs/tissues were <0.6%ID/g. The tumor uptake values of [^68Ga]Ga-AV02053, [^68Ga]Ga-AV02070, and [^68Ga]Ga-FAPI-04 were 5.60 ± 1.12, 7.93 ± 1.88, and 12.5 ± 2.00%ID/g, respectively. […] This also led to higher tumor-to-blood, tumor-to-muscle and tumor-to-bone uptake ratios for [^68Ga]Ga-AV02053 (25.2 ± 1.97, 51.2 ± 19.8 and 38.1 ± 5.03, respectively) and [^68Ga]Ga-AV02070 (22.9 ± 10.1, 45.7 ± 9.88 and 34.3 ± 7.35, respectively) than [^68Ga]Ga-FAPI-04 (11.7 ± 2.04, 18.8 ± 4.09 and 3.93 ± 1.16, respectively) (p < 0.05).
(§1) Imaging and biodistribution studies were performed using male NOD.Cg-Rag1tm1Mom Il2rgtm1Wjl/SzJ (NRG) mice following previously published procedures. The experiments were conducted according to the guidelines established by the Canadian Council on Animal Care and approved by Animal Ethics Committee of the University of British Columbia. The mice were briefly sedated by inhalation of 2.5% isoflurane in oxygen, and HEK293T:hFAP cells (8.5 × 10^6 cells) were inoculated subcutaneously behind the left shoulder. When the tumor grew to 5–8 mm in ~3 weeks, the mice were used for PET/CT imaging and biodistribution studies.
For biodistribution studies, the mice were injected with the radiotracer (~2–4 MBq), as described above. For the blocking study, the mice were co-injected with 250 μg of FAPI-04. At 1 h post-injection, the mice were euthanized by CO2 inhalation. Blood was withdrawn by cardiac puncture, and organs/tissues of interest were collected, weighed, and counted using a Perkin Elmer (Waltham, MA, USA) Wizard2 2480 automatic gamma counter.

[2] = test system: HEK293T:hFAP tumor xenografts; assay: PET/CT imaging in mice bearing HEK293T:hFAP tumor xenografts; type: in vivo; settings: PET imaging and biodistribution, 1 h post-injection
Procedure: Both tracers were excreted primarily through the renal pathway and had very low background uptake in normal organs/tissues. Although [^68Ga]Ga-AV02053 and [^68Ga]Ga-AV02070 had lower tumor uptake than that of previously reported [^68Ga]Ga-FAPI-04, both of them had much lower background uptake, resulting in better tumor-to-background contrast than that of [^68Ga]Ga-FAPI-04 (Figure 3).
as §1
PET/CT imaging experiments were carried out using a Siemens (Knoxville, TN, USA) Inveon micro PET/CT scanner. Each tumor-bearing mouse was injected with ~4–6 MBq of ^68Ga-labeled tracer through a lateral caudal tail vein under 2.5% isoflurane in oxygen anesthesia, followed by recovery and then roamed freely in its cage during the uptake period. […]

[3] = LogD7.4 measurement, shake flask method (n-octanol/PBS pH 7.4); type: physicochemical; settings: n-octanol / phosphate-buffered saline pH 7.4, shake flask
Source text: The lipophilicity of ^68Ga-labeled AV02053, AV02070, and FAPI-04 were estimated by measuring their LogD7.4 values using the shake flask method with n-octanol and phosphate-buffered saline (pH 7.4). The LogD7.4 values of [^68Ga]Ga-AV02053, [^68Ga]Ga-AV02070, and [^68Ga]Ga-FAPI-04 were −3.75 ± 0.16, −3.45 ± 0.10, and −1.02 ± 0.35, respectively. The values indicate that these ^68Ga-labeled tracers are hydrophilic, and the pyridine-based FAP-targeted tracers, [^68Ga]Ga-AV02053 and [^68Ga]Ga-AV02070, are more hydrophilic than [^68Ga]Ga-FAPI-04.
The lipophilicity characteristics of the ^68Ga-labeled pyridine-based FAPIs were determined by calculating the logarithm of the distribution coefficient (logD) in n-octanol/phosphate-buffered saline (PBS) of pH 7.4. Purified ^68Ga-labeled tracer (50 µL) was added into a test tube containing 1 mL n-octanol and 1 mL PBS. The mixture was vortexed, followed by centrifugation for 5 min at 3000 rpm. The two layers were then collected separately, and the radioactivity was counted using a Perkin Elmer (Waltham, MA, USA) Wizard2 2480 automatic gamma counter. After adjusting the counts to background and calculating the ratio (D) of the activity of the organic to that of the aqueous phase, the logD values were then calculated.

[4] = test system: HEK293T:hFAP tumor xenografts; parameters: method as in PMID 36770755; settings: 1 h post-injection, cited from earlier work

Compound: N#C[C@@H]1CCCN1C(=O)CNC(=O)c1ccncc1 [(pyridine-4-carbonyl)glycyl-(2S)-cyanopyrrolidine]
- IC50 (FAP): 63 nM

Compound: CN(CCN(C)c1ccc(C(=O)NCC(=O)N2CC(F)(F)C[C@H]2C#N)cn1)C(=O)CN1CCN(CC(=O)[O-])CCN(CC(=O)[O-])CCN(CC(=O)[O-])CC1.[Ga+3] [Ga-AV02053]
- IC50 (recombinant human FAP): 187 ± 52 nM

Compound: CN(CCN(C)c1cc(C(=O)NCC(=O)N2CC(F)(F)C[C@H]2C#N)ccn1)C(=O)CN1CCN(CC(=O)[O-])CCN(CC(=O)[O-])CCN(CC(=O)[O-])CC1.[Ga+3] [Ga-AV02070]
- IC50 (recombinant human FAP): 17.1 ± 4.6 nM

Compound: CN(CCN(C)c1ccc(C(=O)NCC(=O)N2CC(F)(F)C[C@H]2C#N)cn1)C(=O)CN1CCN(CC(=O)[O-])CCN(CC(=O)[O-])CCN(CC(=O)[O-])CC1.[68Ga+3] [[^68Ga]Ga-AV02053]
- average uptake in all other collected organs/tissues (except tumor and kidneys) [1]: < 0.6 %ID/g
- average uptake in other major organs with vs without co-injection of FAPI-04 [1]: no significant difference
- blood uptake [1]: 0.22 ± 0.04 %ID/g
- bone uptake [1]: 0.14 ± 0.02 %ID/g
- muscle uptake [1]: 0.12 ± 0.05 %ID/g
- tumor-to-blood uptake ratio [1]: 25.2 ± 1.97
- tumor-to-bone uptake ratio [1]: 38.1 ± 5.03
- tumor-to-muscle uptake ratio [1]: 51.2 ± 19.8
- average kidney uptake [1]: 1.35–1.85 %ID/g
- tumor uptake [1]: 5.6 ± 1.12 %ID/g
- average tumor uptake with co-injection of FAPI-04 [1]: 0.30 %ID/g
- reduction of average tumor uptake by co-injection of FAPI-04 [1]: 95%
- excretion pathway [2]: excreted mainly through the renal pathway
- LogD7.4 [3]: −3.75 ± 0.16

Compound: CN(CCN(C)c1cc(C(=O)NCC(=O)N2CC(F)(F)C[C@H]2C#N)ccn1)C(=O)CN1CCN(CC(=O)[O-])CCN(CC(=O)[O-])CCN(CC(=O)[O-])CC1.[68Ga+3] [[^68Ga]Ga-AV02070]
- average uptake in all other collected organs/tissues (except tumor and kidneys) [1]: < 0.6 %ID/g
- average uptake in other major organs with vs without co-injection of FAPI-04 [1]: no significant difference
- blood uptake [1]: 0.36 ± 0.05 %ID/g
- bone uptake [1]: 0.23 ± 0.06 %ID/g
- muscle uptake [1]: 0.19 ± 0.10 %ID/g
- tumor-to-blood uptake ratio [1]: 22.9 ± 10.1
- tumor-to-bone uptake ratio [1]: 34.3 ± 7.35
- tumor-to-muscle uptake ratio [1]: 45.7 ± 9.88
- average kidney uptake [1]: 1.35–1.85 %ID/g
- tumor uptake [1]: 7.93 ± 1.88 %ID/g
- average tumor uptake with co-injection of FAPI-04 [1]: 0.21 %ID/g
- reduction of average tumor uptake by co-injection of FAPI-04 [1]: 97%
- excretion pathway [2]: excreted mainly through the renal pathway
- LogD7.4 [3]: −3.45 ± 0.10

Compound: N#C[C@@H]1CC(F)(F)CN1C(=O)CNC(=O)c1ccnc2ccc(OCCCN3CCN(C(=O)CN4CCN(CC(=O)[O-])CCN(CC(=O)[O-])CCN(CC(=O)[O-])CC4)CC3)cc12.[68Ga+3] [[^68Ga]Ga-FAPI-04]
- blood uptake ([4]; obtained previously): 1.07 ± 0.08 %ID/g
- bone uptake ([4]; obtained previously): 3.36 ± 1.09 %ID/g
- muscle uptake ([4]; obtained previously): 0.67 ± 0.05 %ID/g
- tumor-to-blood uptake ratio ([4]; obtained previously): 11.7 ± 2.04
- tumor-to-bone uptake ratio ([4]; obtained previously): 3.93 ± 1.16
- tumor-to-muscle uptake ratio ([4]; obtained previously): 18.8 ± 4.09
- tumor uptake ([4]; HEK293T:hFAP tumor, previously reported): 12.5 ± 2.00 %ID/g
- LogD7.4 [3]: −1.02 ± 0.35
